Measurements from ChEMBL document CHEMBL3102715, “Synthesis and anti-rhinovirus activity of novel 3-[2-(pyridinyl)vinyl]substituted -2H-chromenes and -4H-chromen-4-ones” (Bioorg Med Chem, 2014).
Active and inactive are the calls of the source. The rule behind the calls is not given here.

Assays:
[1] = Selectivity index, ratio of CC50 for human HeLa cells to IC50 for HRV 14 infected in human HeLa cells; assay type: functional
rhinovirus B14 [2] = test: Antiviral activity against HRV 14 infected in human HeLa cells assessed as reduction in plaque number after 3 days by neutral red assay; assay type: functional, organism-based; settings: Rhinovirus B, 72 h
[3] = Selectivity index, ratio of CC50 for human HeLa cells to IC50 for HRV 1B infected in human HeLa cells; assay type: functional
rhinovirus A1B [4] = test: Antiviral activity against HRV 1B infected in human HeLa cells assessed as reduction in plaque number after 3 days by neutral red assay; assay type: functional, organism-based, Human rhinovirus 1B; settings: Rhinovirus A, 72 h
[5] = Cytotoxicity against human HeLa cells assessed as reduction in cell viability after 3 days by XTT assay; assay type: cell-based; settings: for MNTC at 72 h: read-out: MNCC
rhinovirus A1B [6] = test: Antiviral activity against HRV 1B infected in human HeLa cells assessed as reduction in plaque number at maximum non-cytotoxic concentration after 3 days by neutral red assay; assay type: functional, Human rhinovirus 1B; design: scale not given: the % may be the effect or the level left
rhinovirus B14 [7] = test: Antiviral activity against HRV 14 infected in human HeLa cells assessed as inhibition of viral yield compound treated at 58 uM for 1 hr prior infection followed by compound wash-out by plaque assay; assay type: functional; settings: Rhinovirus B
rhinovirus A1B [8] = test: Antiviral activity against HRV 1B infected in human HeLa cells assessed as inhibition of viral yield compound treated at 43 uM for 1 hr prior infection followed by compound wash-out by plaque assay; assay type: functional, Human rhinovirus 1B; settings: Rhinovirus A
rhinovirus B14 [9] = test: Antiviral activity against HRV 14 infected in human HeLa cells assessed as inhibition of viral yield compound treated at 58 uM during 1 hr at 4 degC followed by compound washout by plaque assay; assay type: functional; settings: Rhinovirus B
rhinovirus A1B [10] = test: Antiviral activity against HRV 1B infected in human HeLa cells assessed as inhibition of viral yield compound treated at 43 uM during 1 hr at 4 degC followed by compound washout by plaque assay; assay type: functional, Human rhinovirus 1B; settings: Rhinovirus A
rhinovirus B14 [11] = test: Antiviral activity against HRV 14 infected in human HeLa cells assessed as maximal reduction of viral yield at 58 uM treated 6 hrs post adsorption period measured after 10 hrs by plaque assay; assay type: functional, organism-based
rhinovirus A1B [12] = test: Antiviral activity against HRV 1B infected in human HeLa cells assessed as maximal reduction of viral yield at 43 uM treated 4 hrs post adsorption period measured after 10 hrs by plaque assay; assay type: functional, organism-based; settings: Human rhinovirus 1B
rhinovirus B14 [13] = test: Antiviral activity against HRV 14 infected in human HeLa cells assessed as half-maximal reduction of viral yield at 58 uM treated 1 hr post adsorption period measured after 10 hrs by plaque assay; assay type: functional, organism-based
rhinovirus A1B [14] = test: Antiviral activity against HRV 1B infected in human HeLa cells assessed as half-maximal reduction of viral yield at 43 uM treated 45 mins post adsorption period measured after 10 hrs by plaque assay; assay type: functional, organism-based; settings: Human rhinovirus 1B
rhinovirus A1B [15] = test: Antiviral activity against HRV 1B infected in human HeLa cells assessed as reduction of viral yield at 43 uM treated 2 hrs post infection measured after 10 hrs by plaque assay; assay type: functional, organism-based; settings: Human rhinovirus 1B
rhinovirus B14 [16] = test: Antiviral activity against HRV 14 infected in human HeLa cells assessed as reduction of viral yield at 58 uM treated 4 hrs post infection measured after 10 hrs by plaque assay; assay type: functional, organism-based
rhinovirus B14 [17] = test: Antiviral activity against HRV 14 infected in human HeLa cells assessed as inhibition of viral yield compound treated at 58 uM prior to 1 hr incubated at 4 degC followed by 10 hrs at 33 degC infection period by plaque assay; assay type: functional
rhinovirus A1B [18] = test: Antiviral activity against HRV 1B infected in human HeLa cells assessed as inhibition of viral yield compound treated at 43 uM prior to 1 hr incubated at 4 degC followed by 10 hrs at 33 degC infection period by plaque assay; assay type: functional, Human rhinovirus 1B
rhinovirus B14 [19] = test: Antiviral activity against HRV 14 infected in human HeLa cells assessed as inhibition of viral yield at 58 uM treated at 1 hr after virus adsorption period measured after 10 hrs by plaque assay relative to control; assay type: functional; settings: Rhinovirus B
rhinovirus A1B [20] = test: Antiviral activity against HRV 1B infected in human HeLa cells assessed as inhibition of viral yield at 43 uM treated at 1 hr after virus adsorption period measured after 10 hrs by plaque assay relative to control; assay type: functional, Human rhinovirus 1B; settings: Rhinovirus A
rhinovirus B14 [21] = test: Antiviral activity against HRV 14 infected in human HeLa cells assessed as log reduction in infectivity at 58 uM after 10 hrs by plaque assay at 56 degC relative to control; assay type: functional
rhinovirus A1B [22] = test: Antiviral activity against HRV 1B infected in human HeLa cells assessed as log reduction in infectivity at 43 uM after 10 hrs by plaque assay at 56 degC relative to control; assay type: functional, Human rhinovirus 1B
rhinovirus B14 [23] = test: Antiviral activity against HRV 14 infected in human HeLa cells assessed as log reduction in infectivity at 58 uM after 10 hrs by plaque assay at pH 5.0 relative to control; assay type: functional
rhinovirus A1B [24] = test: Antiviral activity against HRV 1B infected in human HeLa cells assessed as log reduction in infectivity at 43 uM after 10 hrs by plaque assay at pH 5.0 relative to control; assay type: functional, Human rhinovirus 1B
rhinovirus A1B [25] = test: Antiviral activity against HRV 1B infected in human HeLa cells assessed as inhibition of viral yield at 43 uM treated during 10 hrs multiplication period by plaque assay relative to control; assay type: functional, Human rhinovirus 1B; settings: Rhinovirus A
rhinovirus B14 [26] = test: Antiviral activity against HRV 14 infected in human HeLa cells assessed as inhibition of viral yield at 58 uM treated during 10 hrs multiplication period by plaque assay relative to control; assay type: functional; settings: Rhinovirus B

O=c1c(/C=C/c2ccncc2)coc2ccc(Cl)cc12
Ratio CC50/IC50 [1]: 9.6
IC50 (rhinovirus B14 [2]): 15.6 µM
Ratio CC50/IC50 [3]: 7.87
IC50 (rhinovirus A1B [4]): 19.1 µM
CC50 at 72 h [5]: 150 µM
MNTC at 72 h [5]: 100 µM

C1=C(/C=C\c2ccncc2)COc2ccccc21
Ratio CC50/IC50 [1]: 17.24
IC50 (rhinovirus B14 [2]): 2.9 µM
Ratio CC50/IC50 [3]: 70.42
IC50 (rhinovirus A1B [4]): 0.71 µM
CC50 at 72 h [5]: 50 µM
MNTC at 72 h [5]: 25 µM

O=c1c(/C=C/c2ccccn2)coc2ccc(Cl)cc12
Ratio CC50/IC50 [1]: >9.8
IC50 (rhinovirus B14 [2]): 5.1 µM
Ratio CC50/IC50 [3]: >31.25
IC50 (rhinovirus A1B [4]): 1.6 µM
CC50 at 72 h [5]: > 50 µM
MNTC at 72 h [5]: > 50 µM

O=c1c(/C=C/c2ccncc2)coc2ccccc12
Activity (rhinovirus A1B [6]): 22%
Ratio CC50/IC50 [1]: >1.08
IC50 (rhinovirus B14 [2]): 92.1 µM
IC50 (rhinovirus A1B [4]): > 100 µM
CC50 at 72 h [5]: > 100 µM
MNTC at 72 h [5]: > 100 µM

C1=C(/C=C/c2ccccn2)COc2ccccc21
inhibition at 58 µM (rhinovirus B14 [7]): 1%
inhibition at 43 µM (rhinovirus A1B [8]): 24%
inhibition at 58 µM (rhinovirus B14 [9]): 16%
inhibition at 43 µM (rhinovirus A1B [10]): 14%
Activity (rhinovirus B14 [11]): Active
Activity (rhinovirus A1B [12]): Active
Activity (rhinovirus B14 [13]): Active
Activity (rhinovirus A1B [14]): Active
Activity (rhinovirus A1B [15]): inactive
Activity (rhinovirus B14 [16]): inactive
inhibition (INH) (rhinovirus B14 [17]): 90%
inhibition (INH) (rhinovirus A1B [18]): 90%
inhibition at 58 µM (rhinovirus B14 [19]): 90%
inhibition at 43 µM (rhinovirus A1B [20]): 90%
FC (rhinovirus B14 [21]): 0.9
FC (rhinovirus A1B [22]): 1.1
FC (rhinovirus B14 [23]): 0.9
FC (rhinovirus A1B [24]): 1
Ratio CC50/IC50 [1]: >17.06
IC50 (rhinovirus B14 [2]): 2.93 µM
Ratio CC50/IC50 [3]: >29.41
IC50 (rhinovirus A1B [4]): 1.7 µM
CC50 at 72 h [5]: > 50 µM
MNTC at 72 h [5]: > 50 µM
inhibition at 43 µM (rhinovirus A1B [25]): 90%
inhibition at 58 µM (rhinovirus B14 [26]): 90%

C1=C(/C=C\c2cccnc2)COc2ccccc21
Ratio CC50/IC50 [1]: 4
IC50 (rhinovirus B14 [2]): 9.37 µM
Ratio CC50/IC50 [3]: 38.26
IC50 (rhinovirus A1B [4]): 0.98 µM
CC50 at 72 h [5]: 37.5 µM
MNTC at 72 h [5]: 25 µM

Clc1ccc2c(c1)C=C(/C=C/c1ccccn1)CO2
Ratio CC50/IC50 [1]: >5.58
IC50 (rhinovirus B14 [2]): 8.96 µM
Ratio CC50/IC50 [3]: >29.59
IC50 (rhinovirus A1B [4]): 1.69 µM
CC50 at 72 h [5]: > 50 µM
MNTC at 72 h [5]: > 50 µM

Clc1ccc2c(c1)C=C(/C=C/c1cccnc1)CO2
Ratio CC50/IC50 [1]: 8.78
IC50 (rhinovirus B14 [2]): 4.27 µM
Ratio CC50/IC50 [3]: 8.64
IC50 (rhinovirus A1B [4]): 4.34 µM
CC50 at 72 h [5]: 37.5 µM
MNTC at 72 h [5]: 25 µM

Clc1ccc2c(c1)C=C(/C=C/c1ccncc1)CO2
Ratio CC50/IC50 [1]: 11.17
IC50 (rhinovirus B14 [2]): 6.71 µM
Ratio CC50/IC50 [3]: 15.82
IC50 (rhinovirus A1B [4]): 4.74 µM
CC50 at 72 h [5]: 75 µM
MNTC at 72 h [5]: 50 µM

C1=C(/C=C/c2ccncc2)COc2ccccc21
Ratio CC50/IC50 [1]: 24.75
IC50 (rhinovirus B14 [2]): 3.03 µM
Ratio CC50/IC50 [3]: 38.26
IC50 (rhinovirus A1B [4]): 1.96 µM
CC50 at 72 h [5]: 75 µM
MNTC at 72 h [5]: 50 µM

O=c1c(/C=C/c2ccccn2)coc2ccccc12
Ratio CC50/IC50 [1]: >28.25
IC50 (rhinovirus B14 [2]): 7.08 µM
Ratio CC50/IC50 [3]: >38.84
IC50 (rhinovirus A1B [4]): 5.15 µM
CC50 at 72 h [5]: > 200 µM
MNTC at 72 h [5]: > 200 µM

O=c1c(/C=C\c2cccnc2)coc2ccccc12
Ratio CC50/IC50 [1]: >12.98
IC50 (rhinovirus B14 [2]): 15.4 µM
Ratio CC50/IC50 [3]: >4.28
IC50 (rhinovirus A1B [4]): 46.8 µM
CC50 at 72 h [5]: > 200 µM
MNTC at 72 h [5]: > 200 µM

C1=C(/C=C/c2cccnc2)COc2ccccc21
Ratio CC50/IC50 [1]: 19.33
IC50 (rhinovirus B14 [2]): 3.88 µM
Ratio CC50/IC50 [3]: 16.41
IC50 (rhinovirus A1B [4]): 4.57 µM
CC50 at 72 h [5]: 75 µM
MNTC at 72 h [5]: 25 µM

O=c1c(/C=C\c2cccnc2)coc2ccc(Cl)cc12
Ratio CC50/IC50 [1]: 4.94
IC50 (rhinovirus B14 [2]): 10.1 µM
Ratio CC50/IC50 [3]: 11.74
IC50 (rhinovirus A1B [4]): 4.26 µM
CC50 at 72 h [5]: 50 µM
MNTC at 72 h [5]: 25 µM
